From patent publication US10766896B2, “Imidazo[4,5-c] ring compounds containing guanidine substituted benzamide groups” (3M INNOVATIVE PROPERTIES COMPANY, priority 2017, dated 2020)
Counter-ions that a name gives are not always drawn.

Tested on: Human peripheral blood mononuclear cells (PBMC)
Experiment: Cytokine Induction in Human Cells (PBMC; IFN-alpha by ELISA, IFN-gamma and TNF-alpha by multiplex bead assay)
Assay type: cell-based
Conditions: 21-24 hrs culture, lowest concentration inducing cytokine at least 2× greater than negative control; for MEC to Induce Cytokine IFN-alpha: ELISA; for MEC to Induce Cytokine IFN-gamma / MEC to Induce Cytokine TNF-alpha: multiplex bead assay
Method: Interferon-alpha (IFN-alpha), interferon-gamma (IFN-gamma) and tumor necrosis factor-alpha (TNF-alpha) cytokine levels (pg/mL) were measured using the procedure ‘Cytokine Induction of Human Cells’ described below. The only difference was that for Examples 2, 3, and 4 the diluted compounds were transferred to the PBMCs to achieve final compound concentrations of 100, 33.3, 11.1, 3.7, 1.23, and 0.41 micromolar. The positive control wells contained imiquimod serially diluted to concentrations of 100, 33.3, 11.1, 3.7, 1.23, and 0.41 micromolar. For Example 5, the diluted compound and positive control (imiquimod) were individually transferred to the PBMCs to achieve final concentrations of 30, 10, 3.3, 1.1, 0.37, 0.12, 0.04, and 0.01 micromolar. According to the procedure described below, IFN-alpha cytokine levels (pg/mL) were measured by using the ELISA assay (human IFN-α, pan specific, Mabtech, Cincinnati, Ohio). IFN-gamma and TNF-alpha levels (pg/mL) were measured by using the multiplex bead assay (magnetic beads, R & D Systems Minneapolis, Minn.) according to the manufacturer's instructions. […] Specifically, the minimum effective concentration of each compound (micromolar) was determined as the lowest concentration of the compound that induced a measured cytokine response at a level ([…]) that was at least 2× greater than that observed with the negative control wells.
Cytokine Induction in Human Cells
Whole blood can be obtained from healthy human donors and collected by venipuncture into vacutainer tubes or syringes containing EDTA. Human peripheral blood mononuclear cells (PBMC) are purified from the whole blood by density gradient centrifugation. Histopaque 1077 (15 mL, Sigma, St. Louis, Mo.) is transferred to 6×50 mL sterile polypropylene conical tubes. The Histopaque is overlayed with 15-25 mL of blood diluted 1:2 in Hank's Balanced Salts Solution (HBSS) (Gibco, Life Technology, Grand Island N.Y.). The tubes are then centrifuged at 1370 rpm for 30 minutes at 20° C., with no brake (400×g, GH 3.8A Rotor).
The interface (buffy coat) containing the PBMC is collected and placed in a new sterile 50 mL conical polypropylene centrifuge tube. The PBMC are mixed with an equal volume of HBSS about 20 mL from the interface and about 20 mL of HBSS), and then centrifuged at 1090 rpm, 10 min, 20° C., with brake (270×g, GH 3.8A Rotor). After completing centrifugation, the cells are resuspended in 2-3 mL ACK Red blood cell lysis buffer (ammonium chloride potassium solution, Gibco, Life Technology) and incubated for 2-5 minutes at 20° C. Next, HBSS (40 mL) is added to the cells, and the sample is centrifuged at 270×g for 10 min at 20° C. The supernatant is decanted, and the cell pellet is resuspended in 5 mL AIM V® Medium (Gibco, Life Technology). Cell aggregates and debris are removed by filtering the cell solution through a BD Falcon 70 micron nylon cell strainer (BD Biosciences, San Jose, Calif.).
The number of viable cells is determined by counting with a Miltenyi FACS instrument (Miltenyi Biotec Inc., San Diego, Calif.) or by using a hemacytometer. For determining cell viability with a hemacytometer, the cells are diluted 1/10 in 0.4% trypan blue and HBSS (specifically, 50 microliter of trypan blue+40 microliter of HBSS+10 microliter of cell solution are added to a microfuge tube and mixed). Ten microliters of the diluted cells are then applied to the hemacytometer, and the number of viable PBMC are determined by microscopy.
The PBMC sample is then resuspended in 96-well plates at a concentration of 8×10^5 cells/well in 0.1 mL of AIM-V medium. Each compound is solubilized in DMSO to create a 3 mM stock solution. The stock solution is then further diluted with AIM-V medium to prepare the serial dilutions. The diluted compound (100 microliters) is then transferred to the PBMCs to achieve final compound concentrations of 10, 1, 0.1, 0.01, 0.001, 0.0001 micromolar. The plates also have both positive and negative controls. […]

Structure (SMILES) | MEC to Induce Cytokine IFN-alpha [µM] | MEC to Induce Cytokine IFN-gamma [µM] | MEC to Induce Cytokine TNF-alpha [µM]
CCCCc1nc2c(N)nc3ccccc3c2n1CCOCCNC(=O)c1ccc(CNC(=N)N)cc1 [Example 2, N-[2-[2-(4-amino-2-butyl-imidazo[4,5-c]quinolin-1-yl)ethoxy]ethyl]-4-(guanidinomethyl)benzamide dihydrochloride] | 1.2 | 1.2 | 3.7
CCCc1nc2c(N)nc3ccccc3c2n1CCCCNC(=O)c1ccc(CNC(=N)N)cc1 [Example 3, N-[4-(4-amino-2-propyl-imidazo[4,5-c]quinolin-1-yl)butyl]-4-(guanidinomethyl)benzamide dihydrochloride] | 3.7 | 3.7 | 3.7
CCCCc1nc2c(N)nc3ccccc3c2n1CCCCNC(=O)c1ccc(NC(=N)N)cc1 [Example 4, N-[4-(4-amino-2-butyl-imidazo[4,5-c]quinolin-1-yl)butyl]-4-guanidinobenzamide dihydrochloride] | 0.4 | 3.7 | 1.2
CCCCc1nc2c(N)nc3ccccc3c2n1CCCCNC(=O)c1ccc(CNC(=N)N)cc1 [Example 5, N-[4-(4-amino-2-butyl-imidazo[4,5-c]quinolin-1-yl)butyl]-4-(guanidinomethyl)benzamide dihydrochloride] | 0.37 | 1.1 | –
